Values quoted from earlier work as cited in patent publication US20210393650A1, “Designing Treatments for Chemotherapy-Induced and Age-Related Menopausal Symptoms Using Combinations of Natural Products and Prescription Medications” (Tess Ventures, Inc., priority 2018, published 2021).

What was measured:
[1] = test system: humans; conditions: for effect on anxiety: humans, low to moderate doses
[2] = test system: ovariectomized rat
[3] = test system: postmenopausal women; conditions: human, in vivo
[4] = test system: CB1 receptor; conditions: centrally-mediated, through the CB1 receptor

C=C(C)[C@@H]1CCC(C)=C[C@H]1c1c(O)cc(CCCCC)cc1O [CBD, 2-[(1R,6R)-3-methyl-6-prop-1-en-2-ylcyclohex-2-en-1-yl]-5-pentyl-benzene-1,3-diol]
effect on anxiety [1]: anxiolytic effects | effect on insomnia ([1]; medium to high doses): sedative effect

COc1cc(/C=C/C(=O)CC(=O)/C=C/c2ccc(O)c(OC)c2)ccc1O [curcumin]
tail skin temperature [2]: significant suppression

OCCOc1ccc(/C(=C(/CCCl)c2ccccc2)c2ccccc2)cc1 [ospemifene, Z-2-[4-(4-chloro-1,2-diphenyl-but-1-enyl)-phenoxy]ethanol]
treatment of VVA symptoms versus local estrogen [3]: equivalent to or better than local estrogen

CCCCCc1cc(O)c2c(c1)OC(C)(C)C1CCC(C)=CC21 (stereo not shown) [Δ^9-THC, 6,6,9-trimethyl-3-pentyl-6a,7,8,10a-tetrahydrobenzo[c]chromen-1-ol]
effect on body temperature [4]: hypothermic effect | effect on anxiety [1]: anxiolytic effects | effect on sleep quality ([1]; insomnia): enhance short-term sleep quality
